What all share (assay): Antibacterial activity in vitro, agar plate dilution method (MIC)
What all share (assay type): cell-based

One assay has as its system Proteus morganii IF03848. The following applies: Morganella morganii, 10^6 cells/ml, Mueller Hinton agar, 37° C., 20 hours. How it is done:
(§1) Antibacterial activity in vitro was determined in accordance with the agar plate dilution method. A platinum loop each of test bacteria (10^6 cells/ml), cultured in Mueller Hinton broth, was inoculated on Mueller Hinton agar plates which contained test compounds at various concentrations. After cultivating at 37° C. for 20 hours, the minimum inhibitory concentration (MIC μg/ml) was determined.

Assay [1] deals with Klebsiella pneumoniae IF03317. The following applies: 10^6 cells/ml, Mueller Hinton agar, 37° C., 20 hours. The protocol: as §1
Assay [2] has as its system Staphylococcus aureus Smith. The note with it: 10^6 cells/ml, Mueller Hinton agar, 37° C., 20 hours. How it is done:
as §1

For assay [3], the system named is Serratia marcescens IF03759. The note with it: 10^6 cells/ml, Mueller Hinton agar, 37° C., 20 hours. How it is done: as §1
Assay [4] concerns Pseudomonas aeruginosa IF03445. The following applies: 10^6 cells/ml, Mueller Hinton agar, 37° C., 20 hours. The protocol: as §1
Another assay concerns Escherichia coli 67. The following applies: 10^6 cells/ml, Mueller Hinton agar, 37° C., 20 hours. How it is done:
as §1

In brackets after ≈: the same amount, converted by molar mass.

Regarding `CO/N=C(\C(=O)N[C@@H]1C(=O)N2C(C(=O)O)=C(CSc3c(C(=O)O)cnc4ncnn34)CS[C@H]12)c1csc(N)n1` [Compound 3, (6R,7R)-7-[2-(2-amino-4-thiazolyl)-2-(Z-methoxyimino)acetamido]-3-[(6-carboxy-s-triazolo[1,5-a]pyrimidin-7-yl)-thiomethyl]-8-oxo-5-thia-1-azabicyclo [4.2.0]oct-2-ene-2-carboxylic acid], the MIC against Proteus morganii IF03848 is 1.57 µg/mL (≈ 2.65 µM); in assay [1], < 0.05 µg/mL; in assay [2], 12.5 µg/mL (≈ 21.1 µM); in assay [3], 0.78 µg/mL (≈ 1.32 µM); in assay [4], > 100 µg/mL; against Escherichia coli 67, 0.39 µg/mL (≈ 0.659 µM).

With `CO/N=C(\C(=O)N[C@@H]1C(=O)N2C(C(=O)O)=C(CSc3cc(C)nc4nc(CC(=O)O)nn34)CS[C@H]12)c1csc(N)n1` [Compound 4, (6R,7R)-7-[2-(2-amino-4-thiazolyl)-2-(Z-methoxyimino)acetamido]-3-[(2-carboxymethyl-5-methyl-s-triazolo[1,5-a]pyrimidin-7-yl)thiomethyl]-8-oxo-5-thia-1-azabicyclo[4.2.0]oct-2-ene-2-carboxylic acid], the MIC in the assay on Proteus morganii IF03848 is 0.78 µg/mL (≈ 1.26 µM); in assay [1] it was < 0.05 µg/mL; in assay [2], 3.13 µg/mL (≈ 5.05 µM); in assay [3], 0.1 µg/mL (≈ 0.161 µM); in assay [4] it was 25 µg/mL (≈ 40.3 µM); in the assay on Escherichia coli 67, 0.2 µg/mL (≈ 0.323 µM).

Take `CO/N=C(\C(=O)N[C@@H]1C(=O)N2C(C(=O)O)=C(CSc3cc(CC(=O)O)nc4ncnn34)CS[C@H]12)c1csc(N)n1` [Compound 5, (6R,7R)-7-[2-(2-amino-4-thiazolyl)-2-(Z-methoxyimino)acetamido]-3-[(5-carboxymethyl-s-triazolo[1,5-a]pyrimidin-7-yl)thiomethyl]-8-oxo-5-thia-1-azabicyclo[4.2.0]oct-2-ene-2-carboxylic acid]: the MIC against Proteus morganii IF03848 was 0.78 µg/mL (≈ 1.29 µM); in assay [1], < 0.05 µg/mL; in assay [2], 3.13 µg/mL (≈ 5.17 µM); in assay [3], 0.2 µg/mL (≈ 0.33 µM); in assay [4] it was > 100 µg/mL; against Escherichia coli 67, 0.1 µg/mL (≈ 0.165 µM).

Regarding `CO/N=C(\C(=O)N[C@@H]1C(=O)N2C(C(=O)O)=C(CSc3c(C(=O)O)cnc4nc(C(=O)O)nn34)CS[C@H]12)c1csc(N)n1` [Compound 7, (6R,7R)-7-[2-(2-amino-4-thiazolyl)-2-(Z-methoxyimino)acetamido]-3-[(2,6-dicarboxy-s-triazolo[1,5-a]pyrimidin-7-yl)thiomethyl]-8-oxo-5-thia-1-azabicyclo[4.2.0]oct-2-ene-2-carboxylic acid], the MIC against Proteus morganii IF03848 is 0.39 µg/mL (≈ 0.614 µM); in assay [1], < 0.05 µg/mL; in assay [2] it was 12.5 µg/mL (≈ 19.7 µM); in assay [3], 0.39 µg/mL (≈ 0.614 µM); in assay [4] it was > 100 µg/mL; against Escherichia coli 67 it was < 0.05 µg/mL.

Consider `Cc1cc(SCC2=C(C(=O)O)N3C(=O)[C@@H](NC(=O)/C(=N\OC(=O)c4cccnc4)c4csc(N)n4)[C@H]3SC2)n2nc(C(=O)O)nc2n1` [Compound 11, (6R,7R)-7-[2-(2-amino-4-thiazolyl)-2-[Z-(3-pyridinecarbonyl)oxyimino]acetamido]-3-[(2-carboxy-5-methyl-s-trizolo[1,5-a]pyrimidin-7-yl)thiomethyl]-8-oxo-5-thia-1-azabicyclo[4.2.0]oct-2-ene-2-carboxylic acid], for which the MIC in the assay on Proteus morganii IF03848 is 0.1 µg/mL (≈ 0.144 µM); in assay [1], < 0.05 µg/mL; in assay [2] it was 0.39 µg/mL (≈ 0.56 µM); in assay [3], < 0.05 µg/mL; in assay [4], > 100 µg/mL; against Escherichia coli 67 it was < 0.05 µg/mL.

Take `Cc1cc(SCC2=C(C(=O)O)N3C(=O)[C@@H](NC(=O)/C(=N\OC(=O)c4ccc5c(c4)OCO5)c4csc(N)n4)[C@H]3SC2)n2nc(C(=O)O)nc2n1` [Compound 12]: the MIC in the assay on Proteus morganii IF03848 was 0.78 µg/mL (≈ 1.05 µM); in assay [1], 0.39 µg/mL (≈ 0.527 µM); in assay [2], 0.78 µg/mL (≈ 1.05 µM); in assay [3] it was 0.39 µg/mL (≈ 0.527 µM); in assay [4] it was 25 µg/mL (≈ 33.8 µM); against Escherichia coli 67 it was 0.39 µg/mL (≈ 0.527 µM).

For the molecule `CC(=O)Oc1cc(C(=O)O/N=C(\C(=O)N[C@@H]2C(=O)N3C(C(=O)O)=C(CSc4cc(C)nc5nc(C(=O)O)nn45)CS[C@H]23)c2csc(N)n2)cc(OC(C)=O)c1OC(C)=O` [Compound 13], the MIC against Proteus morganii IF03848 was 0.2 µg/mL (≈ 0.23 µM); in assay [1] it was < 0.05 µg/mL; in assay [2], 0.78 µg/mL (≈ 0.897 µM); in assay [3], < 0.05 µg/mL; in assay [4], 1.57 µg/mL (≈ 1.8 µM); against Escherichia coli 67 it was 0.05 µg/mL (≈ 0.0575 µM).

Take `CO/N=C(\C(=O)N[C@@H]1C(=O)N2C(C(=O)O)=C(CSc3ccnc4nc(C(=O)O)nn34)CS[C@H]12)c1csc(N)n1` [Compound 14, (6R,7R)-7-[2-(2-amino-4-thiazolyl)-2-(Z-methoxyimino)acetamido]-3-[(2-carboxy-s-triazolo[1,5-a]pyrimidin-7-yl)thiomethyl]-8-oxo-5-thia-1-azabicyclo[4.2.0]oct-2-ene-2-carboxylic acid]: the MIC with Proteus morganii IF03848 is 0.2 µg/mL (≈ 0.338 µM); in assay [1], < 0.05 µg/mL; in assay [2], 3.13 µg/mL (≈ 5.29 µM); in assay [3], < 0.05 µg/mL; in assay [4], 50 µg/mL (≈ 84.5 µM); in the assay with Escherichia coli 67, 0.1 µg/mL (≈ 0.169 µM).

For `CO/N=C(\C(=O)N[C@@H]1C(=O)N2C(C(=O)O)=C(CSc3cc(O)nc4nc(C(=O)O)nn34)CS[C@H]12)c1csc(N)n1` [Compound 15], the MIC with Proteus morganii IF03848 is 0.78 µg/mL (≈ 1.28 µM); in assay [1], < 0.05 µg/mL; in assay [2] it was 12.5 µg/mL (≈ 20.6 µM); in assay [3] it was 0.1 µg/mL (≈ 0.165 µM); in assay [4] it was 12.5 µg/mL (≈ 20.6 µM); with Escherichia coli 67 it was 0.39 µg/mL (≈ 0.642 µM).

Consider `CO/N=C(\C(=O)N[C@@H]1C(=O)N2C(C(=O)O)=C(CSc3cc(OC)nc4ncnn34)CS[C@H]12)c1csc(N)n1` [Compound 16, (6R,7R)-7-[2-(2-amino-4-thiazolyl)-2-(Z-methoxyimino)acetamido]-3-[(5-methoxy-s-triazolo[1,5-a]pyrimidin-7-yl)thiomethyl]-8-oxo-5-thia-1-azabicyclo[4.2.0]oct-2-ene-2-carboxylic acid], for which the MIC in the assay with Proteus morganii IF03848 is 3.13 µg/mL (≈ 5.42 µM); in assay [1], < 0.05 µg/mL; in assay [2], 1.57 µg/mL (≈ 2.72 µM); in assay [3], 0.39 µg/mL (≈ 0.675 µM); in assay [4], 100 µg/mL (≈ 173 µM); against Escherichia coli 67, 0.1 µg/mL (≈ 0.173 µM).

Turning to `CO/N=C(\C(=O)N[C@@H]1C(=O)N2C(C(=O)O)=C(CSc3cc(C)nc4nc(N)nn34)CS[C@H]12)c1csc(N)n1` [Compound 17, (6R,7R)-7-[2-(2-amino-4-thiazolyl)-2-(Z-methoxyimino)acetamido]-3-[(2-amino-5-methyl-s-triazolo[1,5-a]pyrimidin-7-yl)thiomethyl]-8-oxo-5-thia-1-azabicyclo[4.2.0]oct-2-ene-2-carboxylic acid], the minimal inhibitory concentration (MIC) in the assay on Proteus morganii IF03848 is 0.39 µg/mL (≈ 0.676 µM); in assay [1], < 0.05 µg/mL; in assay [2] it was 1.57 µg/mL (≈ 2.72 µM); in assay [3] it was 0.2 µg/mL (≈ 0.347 µM); in assay [4], 50 µg/mL (≈ 86.7 µM); in the assay on Escherichia coli 67, 0.1 µg/mL (≈ 0.173 µM).

As for `CO/N=C(\C(=O)N[C@@H]1C(=O)N2C(C(=O)O)=C(CSc3cc(C)nc4nc(S(=O)(=O)O)nn34)CS[C@H]12)c1csc(N)n1` [Compound 18, (6R,7R)-7-[2-(2-amino-4-thiazolyl)-2-(Z-methoxyimino)acetamido]-3-[(2 hydroxysulfonyl-5-methyl-s-triazolo[1,5-a]pyrimidin-7-yl)thiomethyl]-8-oxo-5-thia-1-azabicyclo[4.2.0]oct 2-ene-2-carboxylic acid], the MIC is 0.78 µg/mL (≈ 1.22 µM) against Proteus morganii IF03848; < 0.05 µg/mL in assay [1]; 0.39 µg/mL (≈ 0.608 µM) in assay [2]; 0.2 µg/mL (≈ 0.312 µM) in assay [3]; 100 µg/mL (≈ 156 µM) in assay [4]; < 0.05 µg/mL against Escherichia coli 67.

For the molecule `CO/N=C(\C(=O)N[C@@H]1C(=O)N2C(C(=O)O)=C(CSc3nc4ncc(C(=O)O)c(O)n4n3)CS[C@H]12)c1csc(N)n1` [Compound 19, (6R,7R)-7-[2-(2-amino-4-thiazolyl)-2-(Z-methoxyimino)acetamido]-3-[(6-carboxy-7-hydroxy-s-triazolo[1,5-a]pyrimidin-2-yl)thiomethyl]-8-oxo-5-thia-1-azabicyclo[4.2.0]oct-2-ene-2-carboxylic acid], the MIC in the assay with Proteus morganii IF03848 is 0.2 µg/mL (≈ 0.329 µM); in assay [1], < 0.05 µg/mL; in assay [2] it was 6.25 µg/mL (≈ 10.3 µM); in assay [3], < 0.05 µg/mL; in assay [4], 6.25 µg/mL (≈ 10.3 µM); in the assay on Escherichia coli 67, < 0.05 µg/mL.

For `CO/N=C(\C(=O)N[C@@H]1C(=O)N2C(C(=O)O)=C(CSc3cc(C(=O)O)nc4nnc(C)n34)CS[C@H]12)c1csc(N)n1` [Compound 20, (6R,7R)-7-[2-(2-amino-4-thiazolyl)-2-(Z-methoxyimino)acetamido]-3-[(7-carboxy-3-methyl-s-triazolo[4,3-a]pyrimidin-5-yl)thiomethyl]-8-oxo-5-thia-1-azabicyclo[4.2.0]oct-2-ene-2-carboxylic acid], the MIC in the assay with Proteus morganii IF03848 is 0.78 µg/mL (≈ 1.29 µM); in assay [1], < 0.05 µg/mL; in assay [2], 3.13 µg/mL (≈ 5.17 µM); in assay [3], 0.2 µg/mL (≈ 0.33 µM); in assay [4], 12.5 µg/mL (≈ 20.6 µM); in the assay with Escherichia coli 67, 0.2 µg/mL (≈ 0.33 µM).

On to `CO/N=C(\C(=O)N[C@@H]1C(=O)N2C(C(=O)O)=C(CSc3nnc4nc(C(=O)O)cc(O)n34)CS[C@H]12)c1csc(N)n1` [Compound 21, (6R,7R)-7-[2-(2-amino-4-thiazolyl)-2-(Z-methoxyimino)acetamido]-3-[(7-carboxy-5-hydroxy-s-triazolo[4,3-a]pyrimidin-3-yl)thiomethyl]-8-oxo-5-thia-1-azabicyclo[4.2.0]oct-2-ene-2-carboxylic acid], for which the minimal inhibitory concentration (MIC) in the assay on Proteus morganii IF03848 was 3.13 µg/mL (≈ 5.15 µM); in assay [1], 0.1 µg/mL (≈ 0.165 µM); in assay [2], 25 µg/mL (≈ 41.1 µM); in assay [3], 1.57 µg/mL (≈ 2.58 µM); in assay [4], > 100 µg/mL; against Escherichia coli 67, 0.78 µg/mL (≈ 1.28 µM).

The record behind these values is patent US5064953A, “Intermediates cephalosporin derivatives” (Mochida Pharmaceutical Co., Ltd., priority 1983, dated 1991).
